Results from patent US20080113934A1, “USE OF DIPYRIDAMOLE OR MOPIDAMOL FOR TREATMENT AND PREVENTION OF FIBRIN-DEPENDENT MICROCIRCULATION DISORDERS” (priority 1999, published 2008).
“Also recorded” adds a separate entry of the source.

Key:
[1] = ESPS-2; compared with low-dose aspirin / aspirin alone; cited from earlier work
[2] = system: common carotid artery of rabbits (angioplasty site); assay: Study using radiolabeled platelets and fibrinogen in vivo after balloon angioplasty of the carotid artery; conditions: rabbit carotid artery, monitored four hours after angioplasty; heparin 100 U/kg bolus followed by 25 U/kg/h infusion; dipyridamole 0.25 mg/kg followed by 0.45 mg/kg/hr
Protocol: FIG. 1: Simultaneous detection of ^99Tc labeled platelets and ^123I-labeled fibrinogen at one minute intervals after angioplasty of the common carotid artery of rabbits. […] No injury measurements showing constant radioactivity.
FIG. 2: Deposition of radioactive labeled platelets (^99Tc) and fibrinogen (123I) at angioplasty site after treatment with dipyridamole (0.25 mg/kg followed by 0.45 mg/kg/hr).
The effects of dipyridamole and heparin were investigated using platelets radiolabeled with ^99Tc and fibrinogen labeled with ^123I. The method is described in Lorenz, M. et al., Nuclear Instruments and Methods in Physics Research A., 1994, 353:448-452. An energy-sensitive solid-state radiation detector was placed to surround each carotid artery in rabbits. After inducing injury through balloon angioplasty, the accretion of platelets and fibrinogen was monitored for four hours. […] Accretion was not detected in radiolabeled platelets injected 30 minutes after injury; apparently the angioplasty site had been passivated by endogenous platelet adherence. […] (FIG. 2).

Row | Molecule | reduction of stroke risk [1] | accretion (deposition) of 99Tc labeled platelets at angioplasty site [2] | accretion (deposition) of 123I-labeled fibrinogen at angioplasty site [2]
1 | OCCN(CCO)c1nc(N2CCCCC2)c2nc(N(CCO)CCO)nc(N3CCCCC3)c2n1 [dipyridamole, 2,6-bis(diethanolamino)-4,8-dipiperidino-pyrimido[5,4-d]pyrimidine] | as effective as low-dose aspirin | reduced; also recorded: reduction in platelet aggregation which was similar to that seen with heparin | almost entirely blocked; also recorded: far greater with dipyridamole than with heparin
2 | heparin | – | reduction of platelet as well as fibrinogen accretion; also recorded: reduced accumulation of both platelets and fibrinogen | reduction of platelet as well as fibrinogen accretion; also recorded: reduced accumulation of both platelets and fibrinogen
